Consider three molecules from patent US20230073461A1, “C[…]” (BioNTech SE, priority 2020, published 2023).

Series [1] is described as follows: Single dose IV PK, metabolism and excretion of LNP lipids in rats. Type of series: in vivo. The note with it: for drop of concentration in liver / drop of concentration in plasma: two weeks. On the procedure:
A single dose PK study of ALC-0315 and […] following intravenous (IV) bolus injection of a nanoparticle formulation in rats was conducted to assess the PK and metabolism of lipid excipients ALC-0315 and ALC-0159.
(§1) In vitro metabolism of ALC-0315 and ALC-0159 was evaluated in blood, liver microsomes, S9 fractions, and hepatocytes from mice, rats, monkeys, and humans. In vivo metabolism was examined in rat plasma, urine, faeces, and liver samples from the PK study. […] ALC-0315 and ALC-0159 are apparently metabolised by hydrolytic metabolism of the ester and amide functionalities, respectively, and this hydrolytic metabolism is observed across the species evaluated.

A short description of series [2]: In vitro metabolism in blood, liver microsomes, S9 fractions, hepatocytes. Type of series: in vitro ADME, mice, rats, monkeys, and humans. The note with it: rat samples. The method, then:
as §1

In series [3] the target is human ACE2 peptidase domain (amino acids 1-615 of human ACE2 with C-terminal His-10 and Avi tags) (human) (UniProt Q9BYF1).
UniProt Q9BYF1, sequence (Q9BYF1 18-615 limits assumed): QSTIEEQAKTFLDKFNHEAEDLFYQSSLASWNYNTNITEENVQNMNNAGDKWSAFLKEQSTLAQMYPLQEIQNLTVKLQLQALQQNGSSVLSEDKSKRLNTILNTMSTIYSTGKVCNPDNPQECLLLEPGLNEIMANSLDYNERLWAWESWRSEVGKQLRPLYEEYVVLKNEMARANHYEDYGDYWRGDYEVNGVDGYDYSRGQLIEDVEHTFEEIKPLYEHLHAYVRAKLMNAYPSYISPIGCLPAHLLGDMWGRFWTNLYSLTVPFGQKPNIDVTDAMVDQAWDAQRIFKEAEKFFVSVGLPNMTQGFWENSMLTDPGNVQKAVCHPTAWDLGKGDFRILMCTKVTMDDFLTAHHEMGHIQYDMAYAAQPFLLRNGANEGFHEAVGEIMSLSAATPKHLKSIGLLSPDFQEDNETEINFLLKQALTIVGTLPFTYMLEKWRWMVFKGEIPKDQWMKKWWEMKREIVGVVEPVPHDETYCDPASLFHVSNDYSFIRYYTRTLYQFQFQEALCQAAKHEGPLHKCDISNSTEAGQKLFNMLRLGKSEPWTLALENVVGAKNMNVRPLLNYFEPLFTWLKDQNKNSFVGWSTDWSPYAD
Series [4] shares this target. The experiment in a line: biolayer interferometry; compared with a literature value for monomeric RBD.

On to `CCCCCCCCC(CCCCCC)C(=O)OCCCCCCN(CCCCO)CCCCCCOC(=O)C(CCCCCC)CCCCCCCC` (stereo not drawn) [ALC-0315, ((4-hydroxybutyl)azanediyl)bis(hexane-6,1-diyl)bis(2-hexyldecanoate)], for which the “eliminated unchanged in faeces” value in series [1] is “little to no unchanged material”. Besides, in series [1] (IV bolus of LNP), the “drop of concentration in liver” value was roughly 4 fold and the “drop of concentration in plasma” value is “approximately 7000 fold”. Also, the half-life in series [1] (rat, plasma and liver, IV bolus of LNP, read-out: apparent terminal t½ in plasma and liver) is 144 to 192 h. Also, in series [2], the “rate of metabolism in vitro and in vivo” value is “relatively slowly”.
In turn, “RBD-foldon trimer encoded by BNT162b1 (SARS-CoV-2 spike receptor-binding domain fused at its C-termi (other; other documents disagree on this pair)” had a Kd in series [3] of 5 pM. In series [4], this molecule yielded a fold of the reported KD of monomeric RBD of 1000 fold.
With `CCCCCCCCCCCCCCN(CCCCCCCCCCCCCC)C(=O)COCCOCCOCCOCCOCCOCCOCCOCCOCCOCCOCCOCCOCCOCCOCCOCCOCCOCCOCCOCCOCCOCCOCCOCCOCCOCCOCCOCCOCCOCCOCCOCCOCCOCCOCCOCCOCCOCCOCCOCCOCCOCCOCCOCCOCCOC` [ALC-0159, 2-[(polyethylene glycol)-2000]-N,N-ditetradecylacetamide], the “eliminated unchanged in faeces” value in series [1] amounted to 50%. Moreover, in series [1] (IV bolus of LNP), the “apparent terminal t½ in plasma and liver” value lay within 48 to 72 h; the “drop of concentration in liver” value was greater than 250 fold; the “drop of concentration in plasma” value is on record as “approximately 8000 fold”. In addition, the “rate of metabolism in vitro and in vivo” value in series [2] was “relatively slowly”.
